Entries after “also recorded” stand apart in the source; their conditions may differ. Where a name gives a salt, the structure may show the parent alone. Values belong to the compound of their own block, whether it stands above or below them.
Columns and labels:
rabbit eyes = assay: Tolerance in vivo in rabbit eyes; design: species or system rabbits
Experimental: Eyedrops containing 3.5% compound 1 were administered six times, at 1-hour intervals, to each eye of two conscious rabbits.
It was previously established that dosing rabbits with a 3% solution of Compound 1, 4 times daily, for one week caused no toxicity.

[1] = Pharmacokinetics and ocular tissue distribution of total radioactivity after single topical dose; assay type: in vivo, New Zealand White (Harlan) rabbits
Experimental: Pharmacokinetics, Ocular Tissue Distribution, and Urinary Excretion of Total Radioactivity Following Single Topical Dose Administration of Compound 1 in Rabbits. The pharmacokinetics, ocular tissue distribution and urinary excretion of total radioactivity following a single topical dose administration of the tritiated hydrochloride of Compound 1 in rabbits was evaluated. Eighteen male New Zealand White (Harlan) rabbits, age 3-6 months, weight 2.1 to 3.0 kg were utilized.
Experimental Design: The experimental design was a randomized, single-treatment study in one group of rabbits administered a single topical application of [^3H]Compound 1-HCl into both eyes. The group consisted of 6 subgroups of 3 animals. At six specified times (0.5, 1, 2, 4, 8 and 24 hours) post-dose, three animals per subgroup were euthanized and terminal samples collected. Animals designated to the 24 hour post-dose subgroup were placed in metabolism cages and urine was collected from 0-12 and 12-24 hours post-dose. Terminal blood was collected by cardiac puncture technique. From each eye, the following ocular tissues were harvested: aqueous humor; vitreous humor; lens; and cornea. Total radioactivity was determined in all samples.
Animals received a single topical ocular dose in each eye, right (OD) followed by left (OS). While slightly pulling away the lower eyelid from the globe, the dose was accurately pipetted onto the cornea and allowed to collect in the lower conjunctival sac. The eyelids were gently held shut for 1 minute after drug instillation and then carefully released.
Data analysis and statistical evaluation: Counts per minute for all assayed samples were converted to disintegrations per minute (DPM) using a Beckman LS6000 counter. Following appropriate background subtraction, DPM values were converted to concentrations (DPM per ml or g). Average DPM per ml or g values were calculated. Mean concentration values of ^3H radioactivity were calculated and converted to equivalents per ml or g based on the measured specific activity and nominal concentration of the administered test article formulation as determined by oxidation. Concentrations of total radioactivity in blood and plasma, amount (% of dose) and concentration in ocular tissue and urine samples were determined. Elimination kinetics including blood, plasma, and tissue half-lives were calculated. Urinary excretion data were also tabulated. Statistical evaluation consisted of descriptive statistical analysis. Pharmacokinetics of radioactivity were evaluated by model independent analyses pending suitability of sample assay results. Non-truncated numerical values were used in the calculations.

[2] = Aqueous solubility at room temperature; assay type: physicochemical; conditions: thermodynamic from solid
From the text: It may be preferred that at least 0.1% solubility is needed for an eye drop, even for a suspension formulation. Completely water-insoluble compounds may not be effective. Esters that are soluble in water (>0.1% weight by volume) are preferred. Esters with less than 0.1% solubility may be used in the form of suspensions or ointments or other formulations. […]

[3] = Identification of metabolites of Compound 1 in rabbit aqueous humor (GC/MS); assay type: in vivo; conditions: GC/MS of rabbit aqueous humor after topical dosing
Experimental: Aqueous humor samples, from the in vivo rabbit study described in Example 16 were identified by GC/MS for the presence of compound 1 and its metabolites, tempol-H and carboxylic acid (R1COOH), formed by hydrolysis of compound 1 by ocular esterases. Both the metabolites were observed but not Compound 1.
A sample of aqueous humor was freeze dried in a 10 mL amber colored glass vial containing a tiny magnetic bar. To this was added 1 mL of methylene chloride and the solution was stirred for two minutes and allowed to stand for five minutes. A 3 μL aliquot of the methylene chloride layer was injected into the GC column. The cyclopropanecarboxylic acid was detected by a mass spectrometer detector at 13.02 (retention time) with m/z=85 (GC model […] series II (both made by HP)). Agilent DB-5 column 25 m length, 0.2 mm diameter was used. Carrier gas He at 22 cm/sec. Inlet temperature was 250° C., detector 280° C. For every injection, the temperature was held at 35° C. for 5 minutes, then was increased to 240° C. at 10° C./min, and was held at 240° C. for 3 minutes. Splitless injection was used.

[4] = system: ARPE-19 cells that have accumulated A2E; assay: Protection against A2E-mediated blue light damage in RPE cells; assay type: cell-based; conditions: 24 hours pre-treatment; 430+/−20 nm light; MTT and two-color fluorescence assays; FIG. 3 and FIG. 4
Experimental: Materials and Methods: ARPE-19 cells that have accumulated A2E in culture were exposed to 430+/−20 nm light delivered from a halogen source. This wavelength of light is relevant since (i) the excitation maximum of A2E is approximately 430 nm, and (ii) light of this wavelength reaches the RPE in vivo while light of wavelengths […] by the cornea and lens. Cell death in blue light-illuminated A2E-laden RPE was compared with and without pre-treatment (24 hours) with tempol-H. The loss of cell viability was quantified by: • 1. A calorimetric microtiter assay based on ability of healthy metabolically active cells to cleave the yellow tetrazolium salt MTT to purple formazan crystals. Cell viability was assessed 24 hours after blue light illumination. Triplicate wells were assayed in each of 2 experiments. • 2. Two-color fluorescence assay in which the nuclei of all dead cells appear red due to staining by a membrane-impermeant dye (Dead Red nuclei acid stain, Molecular Probes) with the nuclei of all cells stained blue with DAPI. Cell viability was assessed 8 hours after blue light illumination. Replicates were assayed by counting cells within 5 microscopic fields within the area of illumination in each well and 3 wells were assayed per experiment. Data are based on of 3 experiments.

[5] = Drug penetration of organ cultured rat lenses (ESR); assay type: in vitro ADME, Sprague-Dawley rats; conditions: for Concentration of tempol-H in lens water: Sprague-Dawley, rat, 4 mM
Experimental: Method: Rat lenses were cultured as follows: Rat lenses were obtained from Sprague-Dawley rats. The lenses were incubated in 24-well cluster dishes in modified TC-199 medium and were placed in a 37° C. incubator with a 95% air/5% CO2 atmosphere. The lenses were incubated in 2 ml of culture medium, which was adjusted to 300 milliosmoles (mOsm). […] In one experiment, lenses were incubated for 4 hours and dissected into epithelial, cortical and nuclear sections before analysis.

[6] = Absorption across the cornea: aqueous humor tempol-H after topical eye drops (ESR); assay type: in vivo, New Zealand White rabbits; conditions: all time points (30, 60, 120 minutes) after topical 3.5% solution
Experimental: Groups of six New Zealand White rabbits were used in the study to evaluate the absorption of tempol-H and compound 1. The test compounds were prepared in sterile saline solutions at a concentration of 3.5% weight by volume. The animals were held in restraining boxes during instillation of eye drops, 50 μL in each eye, using a micropipette. After dosing, the eye was gently held closed for 60 seconds. The rabbits were dosed twice daily for 4 consecutive days. On the fifth day, rabbits were dosed once and then euthanized at 30 minutes post dose (2 rabbits), 60 minutes post-dose (2 rabbits) and at 120 minutes post-dose (2 rabbits). Immediately after euthanization, aqueous humor was collected from each rabbit. The aqueous concentration of tempol-H in each sample was measured using the electron spin resonance (ESR) method.

[7] = Measured octanol/water partition coefficient; assay type: physicochemical
From the text: Esters are selected for these tests based on their calculated or measured octanol/water partition coefficient (P). Hydrophilic compounds such as tempol-H cannot penetrate the lipophilic epithelial layer of the cornea. Partition coefficients of tempol-H and esters that penetrate are as follows: […]

[8] = 30 minutes post-dose, single drop (40 ul) of 3% solution, total radioactivity

melting point: 209.4 to 210.4 °C
SMILES: CC1(C)CC(OC(=O)c2ccco2)CC(C)(C)N1O.Cl

melting point: 140 to 142 °C (dec.)
SMILES: CCOCC(C)(C)C(=O)OC1CC(C)(C)N(O)C(C)(C)C1.Cl

SMILES: CC1(C)CC(OC(=O)C2CC2)CC(C)(C)N1O.Cl [Compound 1, 1-hydroxy-4-cyclopropanecarbonyloxy-2,2,6,6-tetramethylpiperidine Hydrochloride]
Toxicity (rabbit eyes; 3% solution, 4 times daily, for one week): no toxicity | Ocular tolerance (rabbit eyes; eyedrops 3.5%, six times at 1-hour intervals, each eye of two conscious rabbits): well tolerated and no adverse findings were noted | Peak concentration, Blood [1, 8]: 240 nanogram equivalents/gram | Peak concentration, Plasma [1, 8]: 360 nanogram equivalents/gram | Peak tissue concentration, Aqueous [1, 8]: 5930 nanogram equivalents/gram | Peak tissue concentration, Cornea [1, 8]: 13090 nanogram equivalents/gram | Peak tissue concentration, Lens [1, 8]: 310 nanogram equivalents/gram | Peak tissue concentration, Vitreous [1, 8]: 150 nanogram equivalents/gram | Radioactivity in tissues at 24 hours post-dose ([1]; all tissues, FIG. 2): still measurable in all tissues | solubility ([2]; 0.01 M acetate buffer, pH 4.8, aqueous buffer, 0.01 M Acetate buffer at pH 4.8, room temperature): 68.6 mg/mL | solubility ([2]; 0.01 M citrate buffer, pH 4.8, aqueous buffer, 0.01 M Citrate buffer at pH 4.8, room temperature): 71.1 mg/mL | solubility ([2]; 0.9% sodium chloride, saline or isotonic, room temperature): 40.5 mg/mL | solubility ([2]; water with 1% w/v glycerin, water, Water + 1% w/v glycerin, room temperature): 62.2 mg/mL | solubility ([2]; water with 1% w/v propylene glycol, water, Water + 1% w/v propylene glycol, room temperature): 63.8 mg/mL | solubility ([2]; water, room temperature): 74.9 mg/mL | Conversion to metabolites (tempol-H and carboxylic acid) in aqueous humor [3]: completely converted to its metabolites

solubility ([2]; water, room temperature): > 35 mg/mL
SMILES: CC(C)(CO)C(=O)OC1CC(C)(C)N(O)C(C)(C)C1 [Example 10, 1-hydroxy-4-(3′-hydroxy-2′,2′-dimethyl)propanecarbonyloxy-2,2,6,6-tetramethylpiperidine Hydrochloride]

melting point: 215 to 220 °C (dec.) | solubility ([2]; water, room temperature): ≥ 1 mg/mL
SMILES: CC1(C(=O)OC2CC(C)(C)N(O)C(C)(C)C2)CC1.Cl [Example 12, 1-hydroxy-4-(1-methyl-cyclopropane)carbonyloxy-2,2,6,6-tetramethylpiperidine Hydrochloride]

solubility ([2]; water, room temperature): > 35 mg/mL
SMILES: CC1(C)CC(OC(=O)C2CCOC2)CC(C)(C)N1O.Cl (stereo not drawn) [Example 16, 1-hydroxy-4-(3′-tetrahydrofuran)carbonyloxy-2,2,6,6-tetramethylpiperidine Hydrochloride]

SMILES: CC1(C)CC(O)CC(C)(C)N1O [Tempol-H, 1,4-dihydroxy-2,2,6,6-tetramethylpiperidine]
Protection against the death of blue light-illuminated A2E-laden RPE [4]: dose-dependent protection; also recorded: protect | Concentration of tempol-H in lens water ([5]; 1 h): 400 µM | Concentration of tempol-H in lens water ([5]; 2 h): 800 µM | Concentration of tempol-H in lens water ([5]; 4 h): 1000 µM | Aqueous humor levels of tempol-H [6]: below detectable limits | P (measured) [7]: 0.5

SMILES: CC1(C)CC(O)CC(C)(C)N1[O] [tempol]
Share in the oxidized form in the epithelium ([5]; 4-hour incubation with tempol): about 5% | Oxidized form tempol found in the lens ([5]; after incubation with 4.0 mM tempol): ≤ 5%

Source: patent publication US7825134B2, “Amelioration of cataracts, macular degeneration and other ophthalmic diseases” (Othera Holding, Inc., priority 2003, dated 2010)
